#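 Cultured in 96-well plates, cells were exposed to test compound for 48 hours across five concentrations. GI50 = concentration required for 50% inhibition of growth.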 Active and inactive are the calls of the source. Cut-off read from the data, not from the text of the source: active = GI50 up to about 1.1 µM and inactive = higher.
# What was measured:
# Experiment in all cases: NCI anticancer screen, dose series, 48 h
# SK-MEL-28 = system: SK-MEL-28
# OVCAR-4 = system: OVCAR-4
# CCRF-CEM = system: CCRF-CEM
# SNB-19 = system: SNB-19
# SW-620 = system: SW-620
# 786-0 = system: 786-0
# SNB-75 = system: SNB-75
# CAKI-1 = system: CAKI-1
# IGROV-1 = system: IGROV-1
# PC-3 = system: PC-3
# SF-295 = system: SF-295
# HCC 2998 = system: HCC 2998
# RPMI-8226 = system: RPMI-8226
# SK-MEL-5 = system: SK-MEL-5
# OVCAR-3 = system: OVCAR-3
# UACC-62 = system: UACC-62
# SF-268 = system: SF-268
# MCF7 = system: MCF7
# OVCAR-5 = system: OVCAR-5
# TK-10 = system: TK-10
# HT-29 = system: HT-29
# EKVX = system: EKVX
# LOX IMVI = system: LOX IMVI
# UACC-257 = system: UACC-257
# HL-60 = system: HL-60
# COLO 205 = system: COLO 205
# SK-OV-3 = system: SK-OV-3
# UO-31 = system: UO-31
# HOP-62 = system: HOP-62
# MDA-MB-231 = system: MDA-MB-231
# SR = system: SR
# BT-549 = system: BT-549
# A498 = system: A498
# MDA-N = system: MDA-N
# M14 = system: M14
# HCT-15 = system: HCT-15
# A549 = system: A549
# KM12 = system: KM12
# SF-539 = system: SF-539
# ACHN = system: ACHN
# OVCAR-8 = system: OVCAR-8
# DU-145 = system: DU-145
# NCI-H460 = system: NCI-H460
# Malme-3M = system: Malme-3M
# NCI-H522 = system: NCI-H522
# NCI-H23 = system: NCI-H23
# K562 = system: K562
# SK-MEL-2 = system: SK-MEL-2
# RXF 393 = system: RXF 393
# MDA-MB-435 = system: MDA-MB-435
# T47D = system: T47D
# HCT-116 = system: HCT-116
# SN12C = system: SN12C
# MOLT-4 = system: MOLT-4
# U-251 = system: U-251
# Hs-578T = system: Hs-578T
# HOP-92 = system: HOP-92
# NCI-H226 = system: NCI-H226
# NCI/ADR-RES = system: NCI/ADR-RES
structure (smiles),measurement,setting,value
COc1ccc([N+](=O)[O-])c2c(NCC(O)CO)ccnc12 (stereo not given),GI50,SK-MEL-28,> 100 µM (inactive)
same,GI50,OVCAR-4,13.5 µM (inactive)
same,GI50,CCRF-CEM,87.1 µM (inactive)
same,GI50,SNB-19,93.8 µM (inactive)
same,GI50,SW-620,42.1 µM (inactive)
same,GI50,786-0,67.6 µM (inactive)
same,GI50,SNB-75,47.8 µM (inactive)
same,GI50,CAKI-1,52.6 µM (inactive)
same,GI50,IGROV-1,27.3 µM (inactive)
same,GI50,PC-3,49.8 µM (inactive)
same,GI50,SF-295,39.8 µM (inactive)
same,GI50,HCC 2998,32.2 µM (inactive)
same,GI50,RPMI-8226,62.7 µM (inactive)
same,GI50,SK-MEL-5,23 µM (inactive)
same,GI50,OVCAR-3,24.2 µM (inactive)
same,GI50,UACC-62,22 µM (inactive)
same,GI50,SF-268,35.9 µM (inactive)
same,GI50,MCF7,29 µM (inactive)
same,GI50,OVCAR-5,> 100 µM (inactive)
same,GI50,TK-10,67.5 µM (inactive)
same,GI50,HT-29,31.7 µM (inactive)
same,GI50,EKVX,16.1 µM (inactive)
same,GI50,LOX IMVI,36.1 µM (inactive)
same,GI50,UACC-257,28.1 µM (inactive)
same,GI50,HL-60,51.1 µM (inactive)
same,GI50,COLO 205,22.5 µM (inactive)
same,GI50,SK-OV-3,> 100 µM (inactive)
same,GI50,UO-31,63.1 µM (inactive)
same,GI50,HOP-62,38.6 µM (inactive)
same,GI50,MDA-MB-231,88.1 µM (inactive)
same,GI50,SR,34.4 µM (inactive)
same,GI50,BT-549,20 µM (inactive)
same,GI50,A498,32.4 µM (inactive)
same,GI50,MDA-N,49.3 µM (inactive)
same,GI50,M14,52.7 µM (inactive)
same,GI50,HCT-15,16.1 µM
same,GI50,A549,35 µM (inactive)
same,GI50,KM12,37.8 µM (inactive)
same,GI50,SF-539,28.8 µM (inactive)
same,GI50,ACHN,43.8 µM (inactive)
same,GI50,OVCAR-8,50.4 µM (inactive)
same,GI50,DU-145,83.9 µM (inactive)
same,GI50,NCI-H460,16.9 µM (inactive)
same,GI50,Malme-3M,20.3 µM (inactive)
same,GI50,NCI-H522,15.5 µM (inactive)
same,GI50,NCI-H23,18 µM (inactive)
same,GI50,K562,18.5 µM (inactive)
same,GI50,SK-MEL-2,23.1 µM (inactive)
same,GI50,RXF 393,28.1 µM (inactive)
same,GI50,MDA-MB-435,> 100 µM (inactive)
same,GI50,T47D,36.4 µM (inactive)
same,GI50,HCT-116,28.9 µM (inactive)
same,GI50,SN12C,77.8 µM (inactive)
same,GI50,MOLT-4,38.9 µM (inactive)
same,GI50,U-251,50.4 µM (inactive)
same,GI50,Hs-578T,22.5 µM (inactive)
O=C(O)CCC[C@]1(O)O[C@@]2(CCCC2=O)[C@]2(O)CCC[C@@]21O,GI50,SK-MEL-28,> 100 µM (inactive)
same,GI50,OVCAR-4,> 100 µM (inactive)
same,GI50,SNB-19,> 100 µM (inactive)
same,GI50,SW-620,> 100 µM (inactive)
same,GI50,786-0,> 100 µM (inactive)
same,GI50,SNB-75,> 100 µM (inactive)
same,GI50,CAKI-1,26.5 µM (inactive)
same,GI50,IGROV-1,> 100 µM (inactive)
same,GI50,PC-3,> 100 µM (inactive)
same,GI50,SF-295,4.24 µM (inactive)
same,GI50,RPMI-8226,> 100 µM (inactive)
same,GI50,SK-MEL-5,> 100 µM (inactive)
same,GI50,HOP-92,> 100 µM (inactive)
same,GI50,OVCAR-3,> 100 µM (inactive)
same,GI50,UACC-62,> 100 µM (inactive)
same,GI50,SF-268,> 100 µM (inactive)
same,GI50,MCF7,> 100 µM (inactive)
same,GI50,OVCAR-5,> 100 µM (inactive)
same,GI50,TK-10,> 100 µM (inactive)
same,GI50,HT-29,> 100 µM (inactive)
same,GI50,EKVX,> 100 µM (inactive)
same,GI50,LOX IMVI,> 100 µM (inactive)
same,GI50,UACC-257,> 100 µM (inactive)
same,GI50,HL-60,> 100 µM (inactive)
same,GI50,COLO 205,> 100 µM (inactive)
same,GI50,NCI-H226,> 100 µM (inactive)
same,GI50,UO-31,> 100 µM (inactive)
same,GI50,HOP-62,> 100 µM (inactive)
same,GI50,MDA-MB-231,> 100 µM (inactive)
same,GI50,SR,> 100 µM (inactive)
same,GI50,BT-549,> 100 µM (inactive)
same,GI50,A498,> 100 µM (inactive)
same,GI50,MDA-N,> 100 µM (inactive)
same,GI50,M14,> 100 µM (inactive)
same,GI50,HCT-15,> 100 µM
same,GI50,A549,> 100 µM (inactive)
same,GI50,KM12,> 100 µM (inactive)
same,GI50,SF-539,> 100 µM (inactive)
same,GI50,ACHN,> 100 µM (inactive)
same,GI50,OVCAR-8,> 100 µM (inactive)
same,GI50,DU-145,> 100 µM (inactive)
same,GI50,NCI-H460,> 100 µM (inactive)
same,GI50,Malme-3M,> 100 µM (inactive)
same,GI50,NCI-H522,0.106 µM (active)
same,GI50,NCI-H23,> 100 µM (inactive)
same,GI50,K562,> 100 µM (inactive)
same,GI50,SK-MEL-2,> 100 µM (inactive)
same,GI50,RXF 393,> 100 µM (inactive)
same,GI50,NCI/ADR-RES,> 100 µM (inactive)
same,GI50,T47D,> 100 µM (inactive)
same,GI50,HCT-116,> 100 µM (inactive)
same,GI50,SN12C,> 100 µM (inactive)
same,GI50,MOLT-4,> 100 µM (inactive)
same,GI50,U-251,> 100 µM (inactive)
same,GI50,Hs-578T,> 100 µM (inactive)
COC(=O)[C@@]12OC[C@]34[C@H]([C@@H](O)[C@@H]1O)[C@@]1(C)CC(=O)C(OC(C)=O)=C(C)[C@@H]1C[C@H]3OC(=O)[C@H](OC(=O)C=C(C)C)[C@@H]24,GI50,OVCAR-4,0.752 µM (active)
same,GI50,SNB-19,0.627 µM (active)
same,GI50,SW-620,0.914 µM (active)
same,GI50,786-0,0.895 µM (active)
same,GI50,SNB-75,1.44 µM (inactive)
same,GI50,CAKI-1,2.7 µM (inactive)
same,GI50,PC-3,0.948 µM (active)
same,GI50,SF-295,0.82 µM (active)
same,GI50,HOP-92,0.813 µM (active)
same,GI50,UACC-62,0.721 µM (active)
same,GI50,SF-268,0.853 µM (active)
same,GI50,OVCAR-5,1.75 µM (inactive)
same,GI50,TK-10,1 µM (active)
same,GI50,HT-29,0.543 µM (active)
same,GI50,EKVX,1.44 µM (inactive)
same,GI50,UACC-257,0.557 µM (active)
same,GI50,COLO 205,0.764 µM (active)
same,GI50,NCI-H226,0.746 µM (active)
same,GI50,UO-31,2.64 µM (inactive)
same,GI50,HOP-62,0.607 µM (active)
same,GI50,MDA-MB-231,1.81 µM (inactive)
same,GI50,BT-549,1.52 µM (inactive)
same,GI50,A498,0.43 µM (active)
same,GI50,MDA-N,0.714 µM (active)
same,GI50,M14,0.755 µM (active)
same,GI50,HCT-15,1.77 µM
same,GI50,A549,0.838 µM (active)
same,GI50,KM12,0.596 µM (active)
same,GI50,ACHN,1.82 µM (inactive)
same,GI50,OVCAR-8,0.743 µM (active)
same,GI50,DU-145,1.34 µM (inactive)
same,GI50,NCI-H23,0.574 µM (active)
same,GI50,SK-MEL-2,0.656 µM (active)
same,GI50,RXF 393,0.75 µM (active)
same,GI50,MDA-MB-435,0.738 µM (active)
same,GI50,NCI/ADR-RES,12.8 µM (inactive)
same,GI50,T47D,0.977 µM (active)
same,GI50,SN12C,1.17 µM (inactive)
same,GI50,Hs-578T,0.857 µM (active)

# Source: ChEMBL document CHEMBL1201862, “PubChem BioAssay data set” (2004)
